According to patent US20260365699A1, “Compound Production Method” (The University of Tokyo, priority 2022, published 2026):
*1 amine or outer side, *2 acyl side, *3 side chain or, on linkers, in order; H or OH if unused. Where a SMILES comes first, the peptide text is derived from it. Bridges are numbered along the chain shown (N, C = ends). X1 = C=C(N[*:2])c1nc(-c2nc(-c3nc(C(=O)OC)cs3)ccc2C(=O)[*:1])cs1

Experiments:
AXIN2 mRNA = AXIN2 mRNA transcription in HCT116 cells (RT-qPCR); format: cell-based, human
Procedure: (§1) The sub-confluent HCT116 cells were treated with the indicated compounds for 24 hours and the cellular levels of TNIK, TNIK pSer764 (autophosphorylation product), c-Myc, and Axin2 were analyzed by an immunoblotting method (FIG. 7(b)) and RT-qPCR (FIG. 7(c)).

LOK = LOK (Homo sapiens, UniProt O94804); experiment: Kinase selectivity profiling (LOK); format: biochemical; conditions: concentration of 1 μM
Procedure: (§2) Next, a kinase selectivity profiling experiment was carried out using a panel of various human kinases.

MYC mRNA = MYC mRNA transcription in HCT116 cells (RT-qPCR); format: cell-based, human
Procedure: as §1

TNIK pSer764 = experiment: Immunoblotting of TNIK pSer764 (TNIK autophosphorylation) in HCT116 cells; format: cell-based, human
Procedure: as §1
Nat. Commun. 2016, 7, 12586).

c-Myc = c-Myc protein level in HCT116 cells (immunoblotting); format: cell-based, human; conditions: 20 μM, 24 hours
Procedure: as §1

MST1 = target: T1, MST1 (Homo sapiens, UniProt Q13043); experiment: Kinase selectivity profiling (MST1); format: biochemical; conditions: concentration of 1 μM
T1 sequence (Q13043 1-487): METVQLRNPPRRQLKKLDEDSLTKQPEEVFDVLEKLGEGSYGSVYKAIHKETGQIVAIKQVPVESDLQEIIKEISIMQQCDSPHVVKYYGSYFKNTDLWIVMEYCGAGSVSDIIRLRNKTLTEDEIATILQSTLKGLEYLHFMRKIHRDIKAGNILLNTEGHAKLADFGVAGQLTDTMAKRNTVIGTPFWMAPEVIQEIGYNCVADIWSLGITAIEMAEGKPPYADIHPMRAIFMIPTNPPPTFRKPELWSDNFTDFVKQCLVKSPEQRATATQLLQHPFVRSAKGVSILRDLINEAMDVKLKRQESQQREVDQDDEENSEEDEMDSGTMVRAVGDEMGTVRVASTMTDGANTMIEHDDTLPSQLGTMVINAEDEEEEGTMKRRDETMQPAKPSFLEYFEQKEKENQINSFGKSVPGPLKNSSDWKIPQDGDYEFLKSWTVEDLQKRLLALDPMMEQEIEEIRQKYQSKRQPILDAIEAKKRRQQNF
Procedure: as §2

HEK293H cells = experiment: Chloroalkane penetration assay (CAPA) in HEK293H cells; format: cell-based, human; conditions: chloroalkane-labeled derivatives
Procedure: as §1
Next, it was confirmed whether or not the obtained compound could also access an intracellular target protein (TNIK is localized in the cytoplasm and the cell nucleus) in a human cell model. First, a chloroalkane penetration assay (CAPA) was performed on 4 types (TP1-ct, TP8-ct, TP14-ct, and TP15-ct) out of the 6 types of chloroalkane-labeled thiopeptide derivatives shown in FIG. 5 in order to measure an uptake degree into the cytoplasm (Peraro, L.; Deprey, K. L.; Moser, M. K.; Zou, Z.; Ball, H. L.; Levine, B.; and Kritzer, J. A. Cell Penetration Profiling Using the Chloroalkane Penetration Assay. J. Am. Chem. Soc. 2018, 140, 11360-11369).

TNIK [1] = target: T2, TNIK (Homo sapiens, UniProt Q9UKE5); experiment: Surface plasmon resonance (SPR) binding affinity to TNIK; conditions: saturated concentration of ATP (1 mM; 15-fold higher than KM)
Description: Surface plasmon resonance (SPR) was used to evaluate the binding affinity of the thiopeptide synthesized in Example 2 to TNIK.

TNIK [2] = experiment: TNIK protein level in HCT116 cells (immunoblotting); format: cell-based, human
Procedure: as §1

Axin2 = Axin2 protein level in HCT116 cells (immunoblotting); format: cell-based, human; conditions: 20 μM, 24 hours
Procedure: as §1

TNIK mRNA = TNIK mRNA level in HCT116 cells (RT-qPCR); format: cell-based, human
Procedure: as §1

TNIK [3] = target: T2, TNIK; experiment: Kinetic analysis (Lineweaver-Burk plots) of TNIK inhibition; format: biochemical; conditions: role: inhibitor
[4] = Metabolic stability in human serum (LC/MS); format: in vitro ADME; conditions: 37 °C
Procedure: The compounds were incubated with a human serum at 37 °C, and the amount of the residual test substance at various points in time was quantified by LC/MS with respect to an internal standard substance. […] Next, it was examined whether or not the half-lives of the compounds were affected by the reactivity of the Dha residue. The Dha residue may be conjugated with various serum thiols.
In addition, the metabolic stability of all of the 14 types of candidate thiopeptides was examined. The compound was incubated with the human serum at 37 °C, and the amount of the residual thiopeptide at various points in time was quantified by LC/MS with respect to the internal standard substance. The half-life of the thiopeptide for TLR10 was generally as long as 38.2 hours, and the thiopeptide was stable.

[5] = Stability / reactivity towards glutathione (GSH), LC/MS; format: physicochemical
TLR10 = target: T3, TLR10 (Homo sapiens, UniProt Q9BXR5); experiment: Surface plasmon resonance (SPR) binding affinity to TLR10
T3 sequence (Q9BXR5 20-811): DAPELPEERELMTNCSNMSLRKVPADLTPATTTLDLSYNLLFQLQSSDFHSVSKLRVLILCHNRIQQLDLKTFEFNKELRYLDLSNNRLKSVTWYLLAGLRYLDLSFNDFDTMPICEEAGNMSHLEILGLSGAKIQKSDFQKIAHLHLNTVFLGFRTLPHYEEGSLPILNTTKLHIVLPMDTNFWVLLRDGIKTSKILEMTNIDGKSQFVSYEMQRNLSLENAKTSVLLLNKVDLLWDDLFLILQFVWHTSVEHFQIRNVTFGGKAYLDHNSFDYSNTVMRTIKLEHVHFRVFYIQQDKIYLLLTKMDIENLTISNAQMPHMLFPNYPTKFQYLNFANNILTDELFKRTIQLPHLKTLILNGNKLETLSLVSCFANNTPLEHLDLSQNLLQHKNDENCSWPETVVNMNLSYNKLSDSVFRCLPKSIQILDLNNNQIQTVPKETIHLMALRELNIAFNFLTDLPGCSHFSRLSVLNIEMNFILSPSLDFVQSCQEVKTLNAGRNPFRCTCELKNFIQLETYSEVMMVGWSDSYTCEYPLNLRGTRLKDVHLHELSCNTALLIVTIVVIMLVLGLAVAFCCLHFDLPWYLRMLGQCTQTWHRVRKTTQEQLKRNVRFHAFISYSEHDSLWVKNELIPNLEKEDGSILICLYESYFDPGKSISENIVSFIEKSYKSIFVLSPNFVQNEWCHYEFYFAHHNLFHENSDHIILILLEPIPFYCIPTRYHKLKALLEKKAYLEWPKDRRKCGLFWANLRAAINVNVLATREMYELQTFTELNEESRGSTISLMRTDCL
Procedure: Next, the binding affinity of each of the synthesized thiopeptides (14 types excluding IR1-ct and IR15-ct in FIG. 8) to the target IRAK4 and TLR10 was examined using surface plasmon resonance (SPR). […] Next, using an ADP-Glo-based kinase inhibition assay, the IC50 values of 4 types of thiopeptides for IRAK4 excluding IR1-ct and IR15-ct were evaluated.

T2 sequence (Q9UKE5 whole entry): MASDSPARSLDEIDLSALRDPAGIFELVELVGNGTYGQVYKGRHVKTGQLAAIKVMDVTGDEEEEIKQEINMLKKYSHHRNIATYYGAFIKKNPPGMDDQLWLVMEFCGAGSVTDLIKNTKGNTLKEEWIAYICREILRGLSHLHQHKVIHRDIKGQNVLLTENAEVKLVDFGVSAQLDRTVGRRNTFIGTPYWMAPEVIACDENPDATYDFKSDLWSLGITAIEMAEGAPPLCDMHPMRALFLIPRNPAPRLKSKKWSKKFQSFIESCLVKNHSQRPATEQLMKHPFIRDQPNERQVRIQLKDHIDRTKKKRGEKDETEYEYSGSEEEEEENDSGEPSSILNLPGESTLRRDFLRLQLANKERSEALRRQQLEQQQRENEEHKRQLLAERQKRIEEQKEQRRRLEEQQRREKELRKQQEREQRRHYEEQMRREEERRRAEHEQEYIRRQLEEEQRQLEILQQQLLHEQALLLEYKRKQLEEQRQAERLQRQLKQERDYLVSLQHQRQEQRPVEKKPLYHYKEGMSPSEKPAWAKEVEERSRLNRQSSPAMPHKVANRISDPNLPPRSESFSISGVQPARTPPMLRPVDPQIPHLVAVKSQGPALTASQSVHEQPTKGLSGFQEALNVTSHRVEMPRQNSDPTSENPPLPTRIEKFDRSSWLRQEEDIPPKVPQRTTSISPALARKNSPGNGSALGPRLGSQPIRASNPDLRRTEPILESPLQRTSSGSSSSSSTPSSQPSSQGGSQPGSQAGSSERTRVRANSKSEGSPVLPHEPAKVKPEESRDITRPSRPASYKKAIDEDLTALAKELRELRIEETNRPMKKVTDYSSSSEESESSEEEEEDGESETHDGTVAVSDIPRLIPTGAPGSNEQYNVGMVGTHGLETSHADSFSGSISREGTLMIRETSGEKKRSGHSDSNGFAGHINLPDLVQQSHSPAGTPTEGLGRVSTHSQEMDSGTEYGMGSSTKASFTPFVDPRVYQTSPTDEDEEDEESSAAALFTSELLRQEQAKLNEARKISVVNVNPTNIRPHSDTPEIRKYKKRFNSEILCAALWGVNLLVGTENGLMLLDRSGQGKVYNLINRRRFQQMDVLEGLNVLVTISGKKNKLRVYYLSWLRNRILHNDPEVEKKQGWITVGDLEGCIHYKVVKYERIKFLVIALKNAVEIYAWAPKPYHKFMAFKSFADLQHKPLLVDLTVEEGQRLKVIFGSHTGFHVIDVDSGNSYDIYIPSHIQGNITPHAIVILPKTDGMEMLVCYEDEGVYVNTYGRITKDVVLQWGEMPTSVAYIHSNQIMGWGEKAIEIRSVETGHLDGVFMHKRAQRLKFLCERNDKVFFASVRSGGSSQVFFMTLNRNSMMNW
Chain of LOK (O94804 whole entry): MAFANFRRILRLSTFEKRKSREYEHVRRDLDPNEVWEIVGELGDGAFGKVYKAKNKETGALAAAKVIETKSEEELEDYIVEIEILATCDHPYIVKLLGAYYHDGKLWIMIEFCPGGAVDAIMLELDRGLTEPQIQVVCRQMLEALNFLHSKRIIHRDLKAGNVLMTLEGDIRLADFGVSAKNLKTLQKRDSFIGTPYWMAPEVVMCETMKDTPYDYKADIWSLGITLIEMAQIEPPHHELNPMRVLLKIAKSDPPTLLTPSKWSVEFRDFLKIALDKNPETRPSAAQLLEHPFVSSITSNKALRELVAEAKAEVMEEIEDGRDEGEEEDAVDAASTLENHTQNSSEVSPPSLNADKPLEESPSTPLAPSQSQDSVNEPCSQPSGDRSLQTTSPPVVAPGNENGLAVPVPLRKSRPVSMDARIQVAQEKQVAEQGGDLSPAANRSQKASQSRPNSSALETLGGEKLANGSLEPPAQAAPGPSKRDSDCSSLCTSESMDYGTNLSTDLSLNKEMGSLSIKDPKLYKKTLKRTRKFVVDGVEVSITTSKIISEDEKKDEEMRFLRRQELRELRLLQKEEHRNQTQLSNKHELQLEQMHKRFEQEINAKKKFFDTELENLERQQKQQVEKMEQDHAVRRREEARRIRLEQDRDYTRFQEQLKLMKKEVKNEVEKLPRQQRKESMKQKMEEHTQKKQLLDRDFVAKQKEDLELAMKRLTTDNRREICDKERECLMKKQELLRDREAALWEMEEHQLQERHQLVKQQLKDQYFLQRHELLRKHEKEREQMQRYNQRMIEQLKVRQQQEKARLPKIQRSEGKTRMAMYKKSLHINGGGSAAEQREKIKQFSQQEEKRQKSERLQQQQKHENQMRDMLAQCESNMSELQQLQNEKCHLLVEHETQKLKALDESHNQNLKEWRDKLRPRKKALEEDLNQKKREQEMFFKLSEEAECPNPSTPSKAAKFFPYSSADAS

inhibition of LOK (LOK) | inhibition of MST1 (MST1) | cytoplasmic uptake (CAPA), in words (HEK293H cells) | mode of TNIK inhibition (TNIK [3]) | stability in human serum, in words [4] | residual amount in the presence of GSH ([5]; 10 mM GSH, after 24 hours) [%] | reactivity with GSH, in words ([5]; increasing concentration of glutathione (GSH)) | Kd (TLR10) [µM] | Compound | transcription of AXIN2 mRNA (AXIN2 mRNA) | transcription of MYC mRNA (MYC mRNA) | level of TNIK pSer764 (TNIK pSer764; 20 μM of TP15, 24 hours, immunoblotting) | TNIK autophosphorylation, in words (figure legend) (TNIK pSer764; 24 hours) | protein level of c-Myc (c-Myc) | binding to TNIK in the presence of ATP (TNIK [1]) | overall expression of TNIK, protein level (TNIK [2]) | protein level of Axin2 (Axin2) | overall expression of TNIK, mRNA level (TNIK mRNA)
inhibited | inhibited | efficient cytoplasmic translocation | substrate competitive inhibitor | short half-life | > 95 | stable | – | C=C1NC(=O)c2csc(n2)[C@H]([C@@H](C)O)NC(=O)[C@H](C)NC(=O)[C@H]([C@@H](C)CC)NC(=O)[C@H](CCCNC(=N)N)NC(=O)CNC(=O)[C@H](CCCNC(=N)N)NC(=O)[C@H]([C@@H](C)O)NC(=O)[C@H](CCCNC(=N)N)NC(=O)[C@H]([C@@H](C)CC)NC(=O)[C@H]([C@@H](C)O)NC(=O)[C@H](Cc2c[nH]c3ccccc23)NC(=O)c2ccc(-c3nc(C(=O)OC)cs3)nc2-c2csc1n2 [TP15] | suppressed in a concentration-dependent manner | suppressed in a concentration-dependent manner | decreased | inhibition of TNIK autophosphorylation | decreased | bonded to TNIK in the presence of the saturated concentration of ATP | not TP15 | decreased | not TP15
– | – | – | – | – | – | – | 0.306 | C=C1NC(=O)[C@H](Cc2c[nH]cn2)NC(=O)[C@H]([C@@H](C)CC)NC(=O)[C@H](C(C)C)NC(=O)[C@H](C(C)C)NC(=O)[C@H](CC(N)=O)NC(=O)[C@H](C(C)C)NC(=O)[C@H](CCCNC(=N)N)NC(=O)[C@H](CO)NC(=O)[C@H](CC(C)C)NC(=O)[C@H](CCC(=O)O)NC(=O)[C@H](CC(C)C)NC(=O)[C@H](CO)NC(=O)[C@H](Cc2c[nH]c3ccccc23)NC(=O)c2ccc(-c3nc(C(=O)OC)cs3)nc2-c2csc1n2 [TL7] (WSLELSRVNVVIH; linker N-C via X1) | – | – | – | – | – | – | – | – | –
